Data reported in patent publication US20070049564A1 (Wyeth, priority 2005, published 2007).
Values after ≈ are worked out from the molar mass of the structure shown. Read-outs that look alike come from different tables or passages of the source.

Assays:
E. coli GC 2231 = test: MIC, broth microdilution; details: Escherichia coli
E. coli GC 2232 = test: MIC, broth microdilution; details: Escherichia coli
E. coli GC 2234 = test: MIC, broth microdilution; details: Escherichia coli
E. coli GC 2272 = test: MIC, broth microdilution; details: Escherichia coli
E. coli GC 4559 = test: MIC, broth microdilution; details: Escherichia coli
E. coli GC 4560 = test: MIC, broth microdilution; details: Escherichia coli
E. coli GC 6465 = test: MIC, broth microdilution; details: Escherichia coli
E. coli GC 2203 = test: MIC, broth microdilution; details: Escherichia coli
P. aeruginosa GC 2214 = test: MIC, broth microdilution; details: Pseudomonas aeruginosa
S. aureus GC 1131 = test: MIC, broth microdilution; details: Staphylococcus aureus
S. aureus GC 6466 = test: MIC, broth microdilution; details: Staphylococcus aureus
S. aureus GC 6467 = test: MIC, broth microdilution; details: Staphylococcus aureus
S. aureus GC 4536 = test: MIC, broth microdilution; details: Staphylococcus aureus
S. aureus GC 2216 = test: MIC, broth microdilution; details: Staphylococcus aureus
S. epidermidis GC 4935 = test: MIC, broth microdilution; details: Staphylococcus epidermidis
E. faecalis GC 2267 = test: MIC, broth microdilution; details: Enterococcus faecalis
E. faecalis GC 2242 = test: MIC, broth microdilution; details: Enterococcus faecalis
S. pneumoniae* GC 4465 = test: MIC, broth microdilution; details: Streptococcus pneumoniae
S. pneumoniae+ GC 4465 = test: MIC, broth microdilution; details: Streptococcus pneumoniae
Staph. aureus Smith = test: In vivo activity (oral, iv; ED50) against Staph. aureus Smith in mice
Experimental: Representative examples of compounds of Formula I were tested for the oral efficacy using S. aureus Smith in mice.

[1] = read-out: MINIMAL INHIBITORY CONCENTRATION MIC, Human Serum
[2] = read-out: MINIMAL INHIBITORY CONCENTRATION MIC, Mouse Serum
[3] = read-out: MINIMAL INHIBITORY CONCENTRATION MIC, Water

CCC(=O)OCOC(=O)N(CC(=O)Nc1cc(N(C)C)c2c(c1O)C(=O)C1=C(O)[C@]3(O)C(=O)C(C(N)=O)=C(O)[C@@H](N(C)C)[C@@H]3C[C@@H]1C2)C(C)(C)C [Example 49, ({[(2-{[(5aR,6aS,7S,10aS)-9-(aminocarbonyl)-4,7-bis(dimethylamino)-1,8,10a,11-tetrahydroxy-10,12-dioxo-5,5a,6,6a,7,10,10a,12-octahydrotetracen-2-yl]amino}-2-oxoethyl)(tert-butyl)amino]carbonyl}oxy)methyl propionate]
MIC (E. coli GC 2231; GC2231, read-out: MINIMAL INHIBITORY CONCENTRATION MIC, Human Serum): 8 µg/mL (≈ 11.2 µM)
MIC (E. coli GC 2231; GC2231, read-out: MINIMAL INHIBITORY CONCENTRATION MIC, Mouse Serum): 0.5 µg/mL (≈ 0.699 µM)
MIC (E. coli GC 2231; GC2231, read-out: MINIMAL INHIBITORY CONCENTRATION MIC, Water): 16 µg/mL (≈ 22.4 µM)
MIC (E. coli GC 2232; GC2232, read-out: MINIMAL INHIBITORY CONCENTRATION MIC, Human Serum): 4 µg/mL (≈ 5.59 µM)
MIC (E. coli GC 2232; GC2232, read-out: MINIMAL INHIBITORY CONCENTRATION MIC, Mouse Serum): 0.5 µg/mL (≈ 0.699 µM)
MIC (E. coli GC 2232; GC2232, read-out: MINIMAL INHIBITORY CONCENTRATION MIC, Water): 16 µg/mL (≈ 22.4 µM)
MIC (E. coli GC 2234; GC2234, read-out: MINIMAL INHIBITORY CONCENTRATION MIC, Human Serum): 4 µg/mL (≈ 5.59 µM)
MIC (E. coli GC 2234; GC2234, read-out: MINIMAL INHIBITORY CONCENTRATION MIC, Mouse Serum): 0.25 µg/mL (≈ 0.349 µM)
MIC (E. coli GC 2234; GC2234, read-out: MINIMAL INHIBITORY CONCENTRATION MIC, Water): 16 µg/mL (≈ 22.4 µM)
MIC (E. coli GC 2272; GC2272, read-out: MINIMAL INHIBITORY CONCENTRATION MIC, Human Serum): 2 µg/mL (≈ 2.79 µM)
MIC (E. coli GC 2272; GC2272, read-out: MINIMAL INHIBITORY CONCENTRATION MIC, Mouse Serum): 0.5 µg/mL (≈ 0.699 µM)
MIC (E. coli GC 2272; GC2272, read-out: MINIMAL INHIBITORY CONCENTRATION MIC, Water): 8 µg/mL (≈ 11.2 µM)
MIC (E. coli GC 4559; GC4559, read-out: MINIMAL INHIBITORY CONCENTRATION MIC, Human Serum): 8 µg/mL (≈ 11.2 µM)
MIC (E. coli GC 4559; GC4559, read-out: MINIMAL INHIBITORY CONCENTRATION MIC, Mouse Serum): 0.5 µg/mL (≈ 0.699 µM)
MIC (E. coli GC 4559; GC4559, read-out: MINIMAL INHIBITORY CONCENTRATION MIC, Water): 16 µg/mL (≈ 22.4 µM)
MIC (E. coli GC 4560; GC4560, read-out: MINIMAL INHIBITORY CONCENTRATION MIC, Human Serum): 0.5 µg/mL (≈ 0.699 µM)
MIC (E. coli GC 4560; GC4560, read-out: MINIMAL INHIBITORY CONCENTRATION MIC, Mouse Serum): 0.12 µg/mL (≈ 0.168 µM)
MIC (E. coli GC 4560; GC4560, read-out: MINIMAL INHIBITORY CONCENTRATION MIC, Water): 1 µg/mL (≈ 1.4 µM)
MIC (E. coli GC 6465; GC6465, read-out: MINIMAL INHIBITORY CONCENTRATION MIC, Human Serum): 32 µg/mL (≈ 44.7 µM)
MIC (E. coli GC 6465; GC6465, read-out: MINIMAL INHIBITORY CONCENTRATION MIC, Mouse Serum): 2 µg/mL (≈ 2.79 µM)
MIC (E. coli GC 6465; GC6465, read-out: MINIMAL INHIBITORY CONCENTRATION MIC, Water): > 64 µg/mL
MIC (E. coli GC 2203; GC2203, read-out: MINIMAL INHIBITORY CONCENTRATION MIC, Human Serum): 4 µg/mL (≈ 5.59 µM)
MIC (E. coli GC 2203; GC2203, read-out: MINIMAL INHIBITORY CONCENTRATION MIC, Mouse Serum): 0.25 µg/mL (≈ 0.349 µM)
MIC (E. coli GC 2203; GC2203, read-out: MINIMAL INHIBITORY CONCENTRATION MIC, Water): 8 µg/mL (≈ 11.2 µM)
MIC (P. aeruginosa GC 2214; GC2214, read-out: MINIMAL INHIBITORY CONCENTRATION MIC, Human Serum): > 64 µg/mL
MIC (P. aeruginosa GC 2214; GC2214, read-out: MINIMAL INHIBITORY CONCENTRATION MIC, Mouse Serum): 32 µg/mL (≈ 44.7 µM)
MIC (P. aeruginosa GC 2214; GC2214, read-out: MINIMAL INHIBITORY CONCENTRATION MIC, Water): > 64 µg/mL
MIC (S. aureus GC 1131; GC1131, read-out: MINIMAL INHIBITORY CONCENTRATION MIC, Human Serum): 0.5 µg/mL (≈ 0.699 µM)
MIC (S. aureus GC 1131; GC1131, read-out: MINIMAL INHIBITORY CONCENTRATION MIC, Mouse Serum): 0.5 µg/mL (≈ 0.699 µM)
MIC (S. aureus GC 1131; GC1131, read-out: MINIMAL INHIBITORY CONCENTRATION MIC, Water): 0.5 µg/mL (≈ 0.699 µM)
MIC (S. aureus GC 6466; GC6466, read-out: MINIMAL INHIBITORY CONCENTRATION MIC, Human Serum): 0.12 µg/mL (≈ 0.168 µM)
MIC (S. aureus GC 6466; GC6466, read-out: MINIMAL INHIBITORY CONCENTRATION MIC, Mouse Serum): 0.12 µg/mL (≈ 0.168 µM)
MIC (S. aureus GC 6466; GC6466, read-out: MINIMAL INHIBITORY CONCENTRATION MIC, Water): 0.12 µg/mL (≈ 0.168 µM)
MIC (S. aureus GC 6467; GC6467, read-out: MINIMAL INHIBITORY CONCENTRATION MIC, Human Serum): 1 µg/mL (≈ 1.4 µM)
MIC (S. aureus GC 6467; GC6467, read-out: MINIMAL INHIBITORY CONCENTRATION MIC, Mouse Serum): 1 µg/mL (≈ 1.4 µM)
MIC (S. aureus GC 6467; GC6467, read-out: MINIMAL INHIBITORY CONCENTRATION MIC, Water): 2 µg/mL (≈ 2.79 µM)
MIC (S. aureus GC 4536; GC4536, read-out: MINIMAL INHIBITORY CONCENTRATION MIC, Human Serum): 0.25 µg/mL (≈ 0.349 µM)
MIC (S. aureus GC 4536; GC4536, read-out: MINIMAL INHIBITORY CONCENTRATION MIC, Mouse Serum): 0.25 µg/mL (≈ 0.349 µM)
MIC (S. aureus GC 4536; GC4536, read-out: MINIMAL INHIBITORY CONCENTRATION MIC, Water): 0.25 µg/mL (≈ 0.349 µM)
MIC (S. aureus GC 2216; GC2216, read-out: MINIMAL INHIBITORY CONCENTRATION MIC, Human Serum): 0.25 µg/mL (≈ 0.349 µM)
MIC (S. aureus GC 2216; GC2216, read-out: MINIMAL INHIBITORY CONCENTRATION MIC, Mouse Serum): 0.25 µg/mL (≈ 0.349 µM)
MIC (S. aureus GC 2216; GC2216, read-out: MINIMAL INHIBITORY CONCENTRATION MIC, Water): 0.5 µg/mL (≈ 0.699 µM)
MIC (S. epidermidis GC 4935; GC4935, read-out: MINIMAL INHIBITORY CONCENTRATION MIC, Human Serum): 1 µg/mL (≈ 1.4 µM)
MIC (S. epidermidis GC 4935; GC4935, read-out: MINIMAL INHIBITORY CONCENTRATION MIC, Mouse Serum): 1 µg/mL (≈ 1.4 µM)
MIC (S. epidermidis GC 4935; GC4935, read-out: MINIMAL INHIBITORY CONCENTRATION MIC, Water): 2 µg/mL (≈ 2.79 µM)
MIC (E. faecalis GC 2267; GC2267, read-out: MINIMAL INHIBITORY CONCENTRATION MIC, Human Serum): 1 µg/mL (≈ 1.4 µM)
MIC (E. faecalis GC 2267; GC2267, read-out: MINIMAL INHIBITORY CONCENTRATION MIC, Mouse Serum): 0.5 µg/mL (≈ 0.699 µM)
MIC (E. faecalis GC 2267; GC2267, read-out: MINIMAL INHIBITORY CONCENTRATION MIC, Water): 4 µg/mL (≈ 5.59 µM)
MIC (E. faecalis GC 2242; GC2242, read-out: MINIMAL INHIBITORY CONCENTRATION MIC, Human Serum): 1 µg/mL (≈ 1.4 µM)
MIC (E. faecalis GC 2242; GC2242, read-out: MINIMAL INHIBITORY CONCENTRATION MIC, Mouse Serum): 0.5 µg/mL (≈ 0.699 µM)
MIC (E. faecalis GC 2242; GC2242, read-out: MINIMAL INHIBITORY CONCENTRATION MIC, Water): 2 µg/mL (≈ 2.79 µM)
MIC (S. pneumoniae* GC 4465; [1]): 0.12 µg/mL (≈ 0.168 µM)
MIC (S. pneumoniae* GC 4465; [2]): 0.12 µg/mL (≈ 0.168 µM)
MIC (S. pneumoniae* GC 4465; [3]): 0.12 µg/mL (≈ 0.168 µM)
MIC (S. pneumoniae+ GC 4465; [1]): 1 µg/mL (≈ 1.4 µM)
MIC (S. pneumoniae+ GC 4465; [2]): 1 µg/mL (≈ 1.4 µM)
MIC (S. pneumoniae+ GC 4465; [3]): 1 µg/mL (≈ 1.4 µM)
ED50 (Staph. aureus Smith; Staphylococcus aureus, in Mus musculus, iv, read-out: ED50 SIV (Staph aureus Smith)): 0.92 mg/kg
ED50 (Staph. aureus Smith; Staphylococcus aureus, in Mus musculus, po, read-out: ED50 SOD (Staph aureus Smith)): 16 mg/kg
ED50 (Staph. aureus Smith; Staphylococcus aureus, in Mus musculus, po, read-out: ED50 Staph Smith SOD): 16.6 mg/kg
ED50 (Staph. aureus Smith; iv, read-out: ED50 Staph Smith SIV): 0.92 mg/kg
